In patent US8486991B2, “Enantiomerically pure phosphoindoles as HIV inhibitors” (Idenix Pharmaceuticals, Inc., priority 2006, dated 2013):
“And” between values parts separate entries of the source, which are not always exact repeats. Equal values may be shown once. Read-outs that look alike come from different tables or passages of the source.

Experiments:
[1] = Cellular cytotoxicity, 4 days, six HIV-1 host cell lines (ranges); type: cell-based; details: human, read-out: Mean CC50 Range
Experimental: (§3) Cell viability was measured by standard MTT or MTS staining.

[2] = tested on: HIV-1 IIIB in MOLT-4 cells; test: Drug susceptibility assay, IIIB in MOLT-4 cells; type: cell-based; details: Human immunodeficiency virus 1, IIIB, MOLT-4; Table 17; read-out: Average EC50 Values ± Standard Deviation, host MOLT-4, virus IIIB
Source text: (§1) The virus and host-cell dependency of Compound I, Compound III and control drugs was further examined in drug susceptibility assays performed across 3 different subtype B wild-type HIV-1 strains and 5 different cell lines.

HIV-1 BH10 in U937 cells = test: Drug susceptibility assay, BH10 in U937 cells; type: cell-based; details: Human immunodeficiency virus 1, U-937; Table 17; read-out: Average EC50 Values ± Standard Deviation, host U937, virus BH10
Source text: as §1

[3] = Cellular cytotoxicity, 4 days, MTS, MOLT-4; type: cell-based; details: human, MOLT-4 cells (T lymphoblastic leukemia cell line), Table 21, read-out: Average CC50 Values ± Standard Deviation, MOLT-4
Experimental: as §3

[4] = Longer term cytotoxicity, HeLa, HuH7 and HepG2 (ranges); details: human, HuH7 and HepG2 cells (range over the three lines), HuH7 and HepG2, 9-12 day testing
Experimental: as §3
Cells were repeatedly treated with a range of drug concentrations (0.005 to 100 μM) for 9 (HeLa) or 12 days (HuH7, HepG2).

HIV-1 IIIB in H9 cells = test: Drug susceptibility assay, IIIB in H9 cells; type: cell-based; details: Human immunodeficiency virus 1, IIIB, H9; Table 17; read-out: Average EC50 Values ± Standard Deviation, host H9, virus IIIB
Source text: as §1

[5] = tested on: HIV-1 BH10 wild-type virus; test: microbe, parasite or virus in culture; type: cell-based
[6] = tested on: HIV-1 IIIB K103R/V179D/P225H triple mutant virus; test: microbe, parasite or virus in culture; type: cell-based; details: for EC50: Human immunodeficiency virus 1, IIIB; for Fold Change, K103R/V179D/P225H: Table 16, IIIB
Experimental: (§2) The test articles were next profiled against a panel of HIV-1 IIIB laboratory cultivated mutants as summarized in the text below. Antiviral efficacy was determined via a CPE assay with an MTS read-out for cell viability.

HIV-1 IIIB w.t. virus = test: microbe, parasite or virus in culture; type: cell-based
Experimental: as §2

[7] = tested on: HIV-1 K103N clinical isolates 4937 and 5002; test: microbe, parasite or virus in culture; type: cell-based; details: Human immunodeficiency virus 1, PBMC, read-out: Average EC50 Values ± Standard Deviation, K103N
[8] = tested on: 9 different HIV-1 subtypes (A, B, C, D, F1, G, H, AE, AG), 18 viruses; test: PhenoSense testing, HIV-1 subtype panel; type: cell-based; details: Human immunodeficiency virus 1, read-out: potency range, panel of 9 different HIV-1 subtypes
Source text: The activities of the test and control compounds were next tested against a subtype panel which covers all major HIV-1 subtypes or clades (A, B, C, D, F1, G, H, AE and AG). This panel was part of a 64 virus panel selected from the large library of clinical isolates Monogram BioSciences (formerly ViroLogics). Each of the subtypes in the panel was represented by 2 distinct viruses which share many sequence similarities, but also some key differences and therefore could respond differently to one or more of the drugs included in this study.

HIV-1 BH10 W.T. = test: Anti-HIV-1 BH10 W.T. activity in presence of HS or AAG; type: cell-based; details: for EC50: Human immunodeficiency virus 1
HIV-1 NL4-3 K103N virus = test: microbe, parasite or virus in culture; type: cell-based; details: for EC50: Human immunodeficiency virus 1, NL43, MT4, read-out: Average EC50 Values ± Standard Deviation, K103N
HIV-1 W.T. (NL4-3) virus = test: PBMC cell assay, W.T. (NL4-3); type: cell-based
[9] = Cellular cytotoxicity, 4 days, MTS, MT-4; details: human, MT-4 cells (leukemia T cells), Average CC50 Values ± Standard Deviation, MT-4, Table 21; 4 days, MTS
Experimental: Following drug exposure for 4 days, cell viability was measured by MTS staining and CC50 values were determined. Drug concentrations ranged from 0.005 μM to 100 μM.
The preceding data, allows us to calculate selectivity index (SI) values, based on the ratio of CC50 to EC50 in MT-4 cells (the standard assay used in this work).

HIV-1 NL4-3 w.t. virus = test: microbe, parasite or virus in culture; type: cell-based
HIV-1 IIIB in U937 cells = test: Drug susceptibility assay, IIIB in U937 cells; type: cell-based; details: Human immunodeficiency virus 1, IIIB, U-937; Table 17; read-out: Average EC50 Values ± Standard Deviation, host U937, virus IIIB
Source text: as §1

[10] = Cellular cytotoxicity, 4 days, MTS, IM9; type: cell-based; details: human, IM9 cells (B lymphoblastic cell line), Table 21, read-out: Average CC50 Values ± Standard Deviation, IM9
Experimental: as §3

[11] = Human immunodeficiency virus 1, MT4, 96 h, read-out: mean EC50, wild-type BH10 virus in MT-4 cells, p24 ELISA, 4 day
[12] = Human immunodeficiency virus 1, MT4, read-out: Average EC50 Values ± Standard Deviation, host MT-4, virus BH10, Table 17
[13] = MT4, read-out: Average EC50 Values ± Standard Deviation, K103R/V179D/P225H
[14] = MT4, read-out: EC50, K103R/V179D/P225H triple mutant virus
[15] = Table 19, AAG 1 mg/ml, read-out: Average EC50 Values ± Standard Deviation, 10% Fetal Bovine Serum + AAG
[16] = Table 19, AAG 1 mg/ml, read-out: Average EC50 Values ± Standard Deviation, 45% Human Serum + AAG
[17] = Table 19, read-out: Average EC50 Values ± Standard Deviation, 10% Fetal Bovine Serum
[18] = Table 19, read-out: Average EC50 Values ± Standard Deviation, 45% Human Serum
[19] = text b887, read-out: mean EC50 values, 45% HS+AAG
[20] = Table 20, vs 10% FBS only, listed as Cmpd III
[21] = Human immunodeficiency virus 1, NL43, MT4, read-out: Average EC50 Values ± Standard Deviation, W.T.
[22] = Human immunodeficiency virus 1, NL43, MT4, read-out: Average EC50 Values ± Standard Deviation, host MT-4, virus NL4-3

Compound | CC50 at 4 days [1] | EC50 [2] | EC50 (HIV-1 BH10 in U937 cells) | CC50 at 4 days [3] | CC50 [4] | EC50 (HIV-1 IIIB in H9 cells) | EC50 [5, 11] | EC50 [5, 12] | EC50 [6, 13] | EC50 [6, 14] | EC50 [7] | EC50 [8] | EC50 (HIV-1 BH10 W.T.; [15]) | EC50 (HIV-1 BH10 W.T.; [16]) | EC50 (HIV-1 BH10 W.T.; [17]) | EC50 (HIV-1 BH10 W.T.; [18]) | EC50 (HIV-1 BH10 W.T.; [19]) | EC50 (HIV-1 NL4-3 K103N virus) | CC50 at 4 days [9] | EC50 (HIV-1 NL4-3 w.t. virus; [21]) | also measured
CO[P@](=O)(c1cc(C)cc(/C=C/C#N)c1)c1c(C(N)=O)[nH]c2ccc(Cl)cc12 [Compound III, (2-Carbamoyl-5-chloro-1H-indol-3-yl)-[3-((E)-2-cyano-vinyl)-5-methyl-phenyl]-(R)-phosphinic acid methyl ester] | 14800 to 50000 nM | 0.6 ± 0.1 nM | 1.3 ± 0.6 nM | 14800 ± 1000 nM | 23500 to 31500 nM | 0.5 ± 0.2 nM | 1.2 nM | 1.2 ± 0.6 nM | 25 ± 6 nM | 21 to 25 nM | 0.9 ± 0.4 nM | 0.2 to 2.14 nM | 2.8 ± 0.4 nM | 32.6 ± 7.3 nM | 1.2 ± 0.4 nM | 21.9 ± 11.7 nM | 32.6 nM | 1.5 ± 0.3 nM | 18600 nM | 1.7 ± 0.3 nM | Fold Change, W.T. ([5]; Table 7, EC50 mutant / EC50 wild-type): 1 fold; EC50 ([5]; read-out: mean EC50, wild-type BH10 virus in MT-4 cells, p24 ELISA, 4 day): ~1 nM and 1 nM; Fold Change, K103R/V179D/P225H [6]: 53.5±12.8 fold; Fold Change, K103R/V179D/P225H ([6]; listed as Cmpd. III): 53.5 ± 12.8 fold; EC50 (HIV-1 IIIB w.t. virus; Human immunodeficiency virus 1, MT4, Table 15, IIIB, CPE, read-out: Average EC50 Values ± Standard Deviation, W.T.): 0.5 ± 0.1 nM; Fold Change, W.T. (HIV-1 IIIB w.t. virus; Table 16, IIIB): 1 fold; Fold Change, 10% Fetal Bovine Serum (HIV-1 BH10 W.T.; Table 20): 1 fold; Fold Change, 45% Human Serum (HIV-1 BH10 W.T.; Table 20, vs 10% FBS only): 17.0 ± 6.3 fold; Fold Change, 45% Human Serum + AAG (HIV-1 BH10 W.T.; Table 20, vs 10% FBS only): 19.5 fold and 24.8 fold; Fold Change, 10% Fetal Bovine Serum + AAG (HIV-1 BH10 W.T.; [20]): 2.1 ± 0.5 fold; Fold Change, 45% Human Serum + AAG (HIV-1 BH10 W.T.; [20]): 24.8 ± 3.8 fold; Fold Change, K103N (HIV-1 NL4-3 K103N virus; Table 11, NL4-3): 0.9 ± 0.2 fold; EC50 (HIV-1 W.T. (NL4-3) virus; Human immunodeficiency virus 1, NL43, PBMC, read-out: Average EC50 Values ± Standard Deviation, W.T. (NL4-3)): 1.5 ± 0.5 nM; EC50 (HIV-1 W.T. (NL4-3) virus; Human immunodeficiency virus 1, NL43, PBMC, read-out: mean EC50, NL4-3 strain in human PBMC): 1.5 nM; EC50 (HIV-1 NL4-3 w.t. virus; [22]): 1.7 ± 0.3 nM; Fold Change, W.T. (HIV-1 NL4-3 w.t. virus; Table 11, NL4-3): 1 fold; EC50 (HIV-1 IIIB in U937 cells): 0.5 ± 0.1 nM; CC50 at 4 days [10]: 50000 ± 17400 nM
O=C1Nc2ccc(Cl)cc2C(C#CC2CC2)(C(F)(F)F)O1 (stereo not drawn) [EFV, 6-chloro-4-cyclopropylethynyl-4-trifluoromethyl-1,4-dihydro-2H-3,1-benzoxazin-2-one, reference compound] | 23200 to 51000 nM | 0.9 ± 0.2 nM | 1.9 ± 0.8 nM | 41700 ± 3400 nM | 48000 to 81000 nM | 1.5 ± 0.6 nM | ~1 nM | 1.2 ± 0.8 nM | > 1000 nM | > 1000 nM | 41.4 ± 36.9 nM | 0.4 to 3.1 nM | 5 ± 2.3 nM | 11.6 ± 7.4 nM | 1.6 ± 0.5 nM | 11.5 ± 3.9 nM | 11.6 nM | 61.2 ± 33.8 nM | 44100 ± 18200 nM | 2.3 ± 0.2 nM | EC50 (HIV-1 IIIB w.t. virus; Human immunodeficiency virus 1, IIIB, MT4, read-out: Average EC50 Values ± Standard Deviation, W.T.): 1.5 ± 0.6 nM; EC50 (HIV-1 W.T. (NL4-3) virus; Human immunodeficiency virus 1, NL43, Table 14, PBMC, read-out: Average EC50 Values ± Standard Deviation, W.T. (NL4-3)): 2.1 ± 0.7 nM; EC50 (HIV-1 NL4-3 w.t. virus; [22]): 2.3 ± 0.2 nM; EC50 (HIV-1 IIIB in U937 cells): 1.5 ± 0.8 nM; CC50 at 4 days [10]: 51000 ± 1300 nM
